Reference: US7566712B2, “Biaryl piperazinyl-pyridine analogues” (Neurogen Corporation, priority 2003, dated 2009)
pIC50: −log10 of the molar value.

target: T1, human capsaicin receptor (Homo sapiens, UniProt Q8NER1); assay: Calcium mobilization assay, determination of antagonist activity (Example 6); format: cell-based; conditions: Table II; determined as described in Example 6 (antagonist activity); "*" = 1 micromolar or less
T1 construct: pBK-CMV expression construct encoding the full length human capsaicin receptor; expressed in transfected cells
T1 sequence (Q8NER1 whole entry): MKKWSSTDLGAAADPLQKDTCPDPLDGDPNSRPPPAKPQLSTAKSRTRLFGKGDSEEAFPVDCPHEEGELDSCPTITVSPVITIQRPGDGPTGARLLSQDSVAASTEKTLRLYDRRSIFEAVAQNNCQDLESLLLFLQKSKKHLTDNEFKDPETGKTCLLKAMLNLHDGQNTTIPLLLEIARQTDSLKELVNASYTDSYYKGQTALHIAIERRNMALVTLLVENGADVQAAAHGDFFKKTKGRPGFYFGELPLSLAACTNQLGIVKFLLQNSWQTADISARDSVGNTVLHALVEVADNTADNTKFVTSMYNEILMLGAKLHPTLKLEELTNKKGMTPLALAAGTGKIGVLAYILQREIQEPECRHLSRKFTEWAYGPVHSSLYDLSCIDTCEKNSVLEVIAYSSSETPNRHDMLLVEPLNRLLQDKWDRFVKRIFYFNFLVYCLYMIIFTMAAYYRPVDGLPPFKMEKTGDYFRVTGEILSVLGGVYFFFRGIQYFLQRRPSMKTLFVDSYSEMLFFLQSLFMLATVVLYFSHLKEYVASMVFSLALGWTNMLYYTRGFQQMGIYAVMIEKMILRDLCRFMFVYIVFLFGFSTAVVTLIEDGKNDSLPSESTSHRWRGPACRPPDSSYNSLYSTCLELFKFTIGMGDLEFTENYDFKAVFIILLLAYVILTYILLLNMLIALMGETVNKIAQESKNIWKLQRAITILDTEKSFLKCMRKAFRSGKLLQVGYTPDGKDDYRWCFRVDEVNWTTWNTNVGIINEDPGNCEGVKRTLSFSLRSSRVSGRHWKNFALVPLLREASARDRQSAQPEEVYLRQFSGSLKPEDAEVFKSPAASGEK
Method in brief: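 HEK293 clonal lines stably expressing full-length human capsaicin receptor, loaded with Fluo-3 AM in KRH buffer pH 7.4, 1–2 h at 37 °C. Compounds (1–5 μM final) preincubated 0.5–6 h at room temperature, then capsaicin at its EC50 added. FLIPR/Fluoroskan calcium signal; IC50 as 50% decrease of capsaicin response.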

pIC50, ≥ 6.00:
C[C@@H]1CN(c2ncccc2F)CCN1c1cc(-c2ccc(F)c(F)c2)nc(N2CCOCC2)n1 [Example 897, 4-{4-(3,4-difluorophenyl)-6-[(2R)-4-(3-fluoropyridin-2-yl)-2-methylpiperazin-1-yl]pyrimidin-2-yl}morpholine]
Cc1cc(-c2cc(N3CCN(c4ncccc4Cl)C[C@@H]3C)nc(Cl)n2)ccc1F [Example 898, 2-chloro-4-[(2S)-4-(3-chloropyridin-2-yl)-2-methylpiperazin-1-yl]-6-(4-fluoro-3-methylphenyl)pyrimidine]
Cc1cc(-c2cc(N3CCN(c4ncccc4Cl)C[C@@H]3C)nc(N3CCCC3)n2)ccc1F [Example 902, 4-[(2S)-4-(3-chloropyridin-2-yl)-2-methylpiperazin-1-yl]-6-(4-fluoro-3-methylphenyl)-2-pyrrolidin-1-ylpyrimidine]
Cc1cc(-c2cc(N3CCN(c4ncccc4Cl)C[C@@H]3C)nc(N3CCOCC3)n2)ccc1F [Example 904, 4-[4-[(2S)-4-(3-chloropyridin-2-yl)-2-methylpiperazin-1-yl]-6-(4-fluoro-3-methylphenyl)pyrimidin-2-yl]morpholine]
Cc1cc(-c2cc(N3CCN(c4ncccc4Cl)C[C@H]3C)nc(N(C)C(C)CO)n2)ccc1F (stereo partly drawn) [Example 905, 2-[[4-[4-(3-chloropyridin-2-yl)-2-methylpiperazin-1-yl]-6-(4-fluoro-3-methylphenyl)pyrimidin-2-yl](methyl)amino]propan-1-ol]
C[C@@H]1CN(c2nccnc2Cl)CCN1c1nc(Cl)cc(-c2ccc(F)c(Cl)c2)n1 [Example 906, 4-chloro-6-(3-ohloro-4-fluorophenyl)-2-[4-(3-chloropyrazin-2-yl)-2-methylpiperazin-1-yl]pyrimidine]
CC1CCCN1c1nc(-c2ccc(F)c(Cl)c2)cc(N2CCN(c3nccnc3Cl)C[C@H]2C)n1 (stereo partly drawn) [Example 908]
C[C@@H]1CN(c2nccnc2Cl)CCN1c1cc(-c2ccc(F)c(Cl)c2)nc(N2CCCC2)n1 [Example 909, 4-(3-chloro-4-fluorophenyl)-6-[(2R)-4-(3-chloropyrazin-2-yl)-2-methylpiperazin-1-yl]-2-pyrrolidin-1-ylpyrimidine]
C[C@@H]1CN(c2nccnc2Cl)CCN1c1cc(-c2ccc(F)c(Cl)c2)nc(N2CCOCC2)n1 [Example 910, 4-{4-(3-chloro-4-fluorophenyl)-6-[(2R)-4-(3-chloropyrazin-2-yl)-2-methylpiperazin-1-yl]pyrimidin-2-yl}morpholine]
CC1CCCN1c1cc(-c2ccc(F)c(Cl)c2)nc(N2CCN(c3nccnc3Cl)C[C@H]2C)n1 (stereo partly drawn) [Example 911]
Cc1cc(-c2cc(N3CCN(c4nccnc4Cl)C[C@H]3C)nc(Cl)n2)ccc1F [Example 912, 2-chloro-4-[(2R)-4-(3-chloropyrazin-2-yl)-2-methylpiperazin-1-yl]-6-(4-fluoro-3-methylphenyl)pyrimidine]
Cc1cc(-c2cc(N3CCN(c4nccnc4Cl)C[C@H]3C)nc(N3CCCC3)n2)ccc1F [Example 914, 4-[(2R)-4-(3-chloropyrazin-2-yl)-2-methylpiperazin-1-yl]-6-(4-fluoro-3-methylphenyl)-2-pyrrolidin-1-ylpyrimidine]
Cc1cc(-c2cc(N3CCN(c4nccnc4Cl)C[C@H]3C)nc(N3CCOCC3)n2)ccc1F [Example 916, 4-[4-[(2R)-4-(3-chloropyrazin-2-yl)-2-methylpiperazin-1-yl]-6-(4-fluoro-3-methylphenyl)pyrimidin-2-yl]morpholine]
Cc1cc(-c2cc(N3CCCC3C)nc(N3CCN(c4ncccc4Cl)C[C@@H]3C)n2)ccc1F (stereo partly drawn) [Example 917, 2-[4-(3-chloropyridin-2-yl)-2-methylpiperazin-1-yl]-4-(4-fluoro-3-methylphenyl)-6-(2-methylpyrrolidin-1-yl)pyrimidine]
COc1ccc(Cl)c(N2CCN(c3cc(-c4ccc(F)c(Cl)c4)nc(N4CCCC4C)n3)CC2)n1 (stereo not drawn) [Example 918, 4-(3-chloro-4-fluorophenyl)-6-[4-(3-chloro-6-methoxypyridin-2-yl)piperazin-1-yl]-2-(2-methylpyrrolidin-1-yl)pyrimidine]
C[C@@H]1CN(c2nccnc2Cl)CCN1c1nc(Cl)cc(-c2ccc(F)cc2)n1 [Example 919, 4-chloro-2-[(2R)-4-(3-chloropyrazin-2-yl)-2-methylpiperazin-1-yl]-6-(4-fluorophenyl)pyrimidine]
C[C@@H]1CN(c2nccnc2Cl)CCN1c1cc(-c2ccc(F)cc2)nc(Cl)n1 [Example 920, 2-chloro-4-[(2R)-4-(3-chloropyrazin-2-yl)-2-methylpiperazin-1-yl]-6-(4-fluorophenyl)pyrimidine]
C[C@H]1CN(c2ncccc2Cl)CCN1c1cc(-c2ccc(F)c(F)c2)nc(N2CCCC2)n1 [Example 921, 4-[(2S)-4-(3-chloropyridin-2-yl)-2-methylpiperazin-1-yl]-6-(3,4-difluorophenyl)-2-pyrrolidin-1-ylpyrimidine]
CC1CCCN1c1nc(-c2ccc(F)c(F)c2)cc(N2CCN(c3ncccc3Cl)C[C@@H]2C)n1 (stereo partly drawn) [Example 922, 4-[(2S)-4-(3-chloropyridin-2-yl)-2-methylpiperazin-1-yl]-6-(3,4-difluorophenyl)-2-(2-methylpyrrolidin-1-yl)pyrimidine]
C[C@H]1CN(c2ncccc2Cl)CCN1c1cc(-c2ccc(F)c(F)c2)nc(N2CCOCC2)n1 [Example 923, 4-[4-[(2S)-4-(3-chloropyridin-2-yl)-2-methylpiperazin-1-yl]-6-(3,4-difluorophenyl)pyrimidin-2-yl]morpholine]
Cc1cc(-c2cc(N3CCN(c4ncccc4Cl)C[C@H]3C)nc(N3CCC[C@H]3C)n2)ccc1F [Example 924, 4-[(2R)-4-(3-chloropyridin-2-yl)-2-methylpiperazin-1-yl]-6-(4-fluoro-3-methylphenyl)-2-[(2R)-2-methylpyrrolidin-1-yl]pyrimidine]
C[C@@H]1CN(c2ncccc2Cl)CCN1c1cc(-c2ccc(F)c(F)c2)nc(N2CCC[C@H]2C)n1 [Example 925, 4-[(2R)-4-(3-chloropyridin-2-yl)-2-methylpiperazin-1-yl]-6-(3,4-difluorophenyl)-2-[(2R)-2-methylpyrrolidin-1-yl]pyrimidine]
CC1CCCN1c1nc(-c2ccc(F)cc2)cc(N2CCN(c3nccnc3Cl)C[C@H]2C)n1 (stereo partly drawn) [Example 926, 4-[4-(3-chloropyrazin-2-yl)-2-methylpiperazin-1-yl]-6-(4-fluorophenyl)-2-(2-methylpyrrolidin-1-yl)pyrimidine]
C[C@@H]1CN(c2nccnc2Cl)CCN1c1cc(-c2ccc(F)cc2)nc(N2CCC[C@H]2C)n1 [Example 927, 4-[(2R)-4-(3-chloropyrazin-2-yl)-2-methylpiperazin-1-yl]-6-(4-fluorophenyl)-2-[(2R)-2-methylpyrrolidin-1-yl]pyrimidine]
C[C@@H]1CN(c2nccnc2Cl)CCN1c1cc(-c2ccc(F)cc2)nc(N2CCCC2)n1 [Example 928, 4-[(2R)-4-(3-chloropyrazin-2-yl)-2-methylpiperazin-1-yl]-6-(4-fluorophenyl)-2-pyrrolidin-1-ylpyrimidine]
C[C@@H]1CN(c2nccnc2Cl)CCN1c1cc(-c2ccc(F)cc2)nc(N2CCOCC2)n1 [Example 929, 4-[4-[(2R)-4-(3-chloropyrazin-2-yl)-2-methylpiperazin-1-yl]-6-(4-fluorophenyl)pyrimidin-2-yl]morpholine]
C[C@@H]1CCCN1c1nc(-c2ccc(F)c(F)c2)cc(N2CCN(c3ncccc3Cl)C[C@@H]2C)n1 [Example 930, 4-[(2S)-4-(3-chloropyridin-2-yl)-2-methylpiperazin-1-yl]-6-(3,4-difluorophenyl)-2-[(2R)-2-methylpyrrolidin-1-yl]pyrimidine]
Cc1cc(C#N)cnc1N1CCN(c2cc(-c3ccc(F)cc3)nc(N3CCCC3C)n2)CC1 (stereo not drawn) [Example 931, 6-{4-[6-(4-fluorophenyl)-2-(2-methylpyrrolidin-1-yl)pyrimidin-4-yl]piperazin-1-yl}-5-methylnicotinonitrile]
Cc1cc(C#N)cnc1N1CCN(c2cc(-c3ccc(F)cc3)nc(N3CCCC3C)n2)[C@H](C)C1 (stereo partly drawn) [Example 932, 6-{4-[6-(4-fluorophenyl)-2-(2-methylpyrrolidin-1-yl)pyrimidin-4-yl]-3-methylpiperazin-1-yl}-5-methylnicotinonitrile]
CCNC(=O)c1cnc(N2CCN(c3cc(-c4ccc(F)c(Cl)c4)nc(N4CCCC4C)n3)[C@H](C)C2)c(Cl)c1 (stereo partly drawn) [Example 933, 5-chloro-6-{4-[6-(3-chloro-4-fluorophenyl)-2-(2-methylpyrrolidin-1-yl)pyrimidin-4-yl]-3-methylpiperazin-1-yl}-N-ethylnicotinamide]
C[C@@H]1CN(c2ncccc2Cl)CCN1c1cc(-c2ccc(Cl)c(F)c2)nc(N2CCC[C@H]2C)n1 [Example 934, 4-(4-chloro-3-fluorophenyl)-6-[(2R)-4-(3-chloropyridin-2-yl)-2-methylpiperazin-1-yl]-2-[(2R)-2-methylpyrrolidin-1-yl]pyrimidine]
C[C@@H]1CN(c2nccnc2Cl)CCN1c1cc(-c2ccc(F)c(F)c2)nc(N2CCC[C@H]2C)n1 [Example 935, 4-[(2R)-4-(3-chloropyrazin-2-yl)-2-methylpiperazin-1-yl]-6-(3,4-difluorophenyl)-2-[(2R)-2-methylpyrrolidin-1-yl]pyrimidine]
C[C@@H]1CN(c2ncccc2C(F)(F)F)CCN1c1cc(-c2ccc(F)c(F)c2)nc(N2CCC[C@H]2C)n1 [Example 936, 4-(3,4-difluorophenyl)-2-[(2R)-2-methylpyrrolidin-1-yl]-6-{(2R)-2-methyl-4-[3-(trifluoromethyl)pyridin-2-yl]piperazin-1-yl}pyrimidine]
